From US8975241B2, “Composition for treating and preventing obesity including high water-soluble 2-hydroxypropyl-betacyclodextrin as effective component” (Song Ho Biomed Co., Ltd., priority 2009, dated 2015)

Key:
[1] = Solubility in water; details: at 25° C.
[2] = tested on: mouse model with obesity caused by a high fat diet; assay: Change in body weight by autonomically drinking in mouse model with obesity caused by high fat diet; type: in vivo
[3] = tested on: normal mouse (ICR); assay: Oral glucose tolerance test; type: in vivo; details: for Rate of Suppression (%): vs control group
Description: An oral glucose tolerance test system is to comprehensively predict whether or not a sample has an effect on suppressing a sharp increase of blood sugar induced by intaking glucose after an oral-administration of the sample to a mouse, activities of suppressing glycolysis/glucose absorption, etc.
A normal mouse [ICR, 6W, Coretech Inc., Korea] was accommodated for 1 week, and then approximately 18˜20 g female with 7 age of the week mouse was used. 6 mice were assigned for one experimental group and starved for 16 hours to use. Hydroxypropyl-β-cyclodextrin (HPBCD) was dissolved in sterilized distilled water to be 20% (W/V) concentration, and then oral-administered in 0.2 mL per 20 g body weight of a mouse. And then, the glucose dissolved in physiological saline was oral-administered to mice in a liquid amount of 10 ml/kg to inject 2 g/kg after 15, 30, 60, and 90 minutes, respectively. The levels of blood sugars were measured just before administering glucose (0 hour), and at 15, 60, and 120 minutes after administering glucose. Blood for measuring blood sugar was collected from orbital venous of the mouse using a capillary tube. The blood sugar in the collected blood was measured using a measuring instrument, […] ALPHA (Boehringer mannheim Co.). The same amount of sterilized distilled water was administered for the control group.

[4] = tested on: high fat diet-mouse; assay: Change of liver weight and body fat by oral administration in high fat diet-mouse; type: in vivo; details: oral for 5 days
Protocol: […] The mice were killed by using CO2 gas; their abdomens were cut; their subcutaneous fats, genital fats, intra-abdominal fats, and livers were isolated; then their weights were measured using a chemical balance; average weight of five animals was calculated.

[5] = tested on: mouse model with obesity caused by a high fat diet; assay: Weights of body fat and liver after autonomically drinking in mouse model with obesity caused by high fat diet; type: in vivo
Protocol: The animals induced with obesity in the above <Example 1> drank autonomically HPBCD with 10, 15, and 20% (W/V) concentrations for 3 days and then their autopsies were conducted. The mice were killed by using CO2 gas; their abdomens were cut; their genital fats, intra-abdominal fats, and livers were isolated; then their weights were measured using a chemical balance; average weight of three animals was calculated.

[6] = tested on: high fat diet-mouse; assay: Amount of feed intake by oral administration in high fat diet-mouse; type: in vivo
Protocol: Male C57BL/6J mice (Five age of the week, KRIBB, Korea) were accommodated for 1 week. And then, the weights of the animals were equally divided into 5 animals as one group. While a high fat diet (60% fat kcal) was provided, sterilized distilled water and HPBCDs with 10, 20, and 40% (W/V) were orally administered at three times (Morning, Afternoon, Evening) a day for 5 days in 0.2 ml per 20 g body weight of a mouse at the same time. A change in body weight was measured to all of the animals during the test at one time per day; the fixed amount of feeds was provided at the day of measuring body weight, and then an average amount of intake per an animal (g/mouse/day) was calculated by measuring a residual amount of feeds at the next day.

[7] = tested on: mouse model with obesity caused by a high fat diet; assay: Change in body weight by autonomically drinking in mouse model with obesity caused by high fat diet; type: in vivo; details: 15% (w/v) in drinking water
Protocol: Male C57BL/6J mice (Five age of the week, KRIBB, Korea) were accommodated for 1 week, and then were induced with obesity by giving a high fat diet (60% fat kcal, Research Diets) for 15 days. The weights of the animals that were induced with obesity were equally divided into 3 animals as one group. And then, the solvent-control group drank sterilized distilled water, autonomically. Hydroxypropyl-β-cyclodextrin (HPBCD) was dissolved in sterilized distilled water to be 10, 15, and 20% (W/V) concentrations for drinking autonomically. A change in body weight was daily measured to all of animals during the test; the fixed amount of feeds was provided at the day of measuring body weight, and then an amount of intake per a group (g/day) was calculated by measuring a residual amount of feeds at the next day. A change in body weight was measured during the test using α-cyclodextrin (α-CD) instead of 2-hydroxypropyl-β-cyclodextrin (HPBCD) in the same method as the above <Example 1>.

[8] = 10, 15, 20% (W/V) autonomically drinking
[9] = 20% (W/V) oral (−)15 min. before glucose 2 g/kg
[10] = 20% (W/V) oral (−)30 min. before glucose 2 g/kg
[11] = 20% (W/V) oral (−)60 min. before glucose 2 g/kg
[12] = 20% (W/V) oral (−)90 min. before glucose 2 g/kg
[13] = 10% (w/v) in drinking water for 3 days
[14] = 15% (w/v) in drinking water for 3 days
[15] = 20% (w/v) in drinking water for 3 days

2-hydroxypropyl-β-cyclodextrin [HPBCD]
Solubility [1]: > 600 mg/mL | Change in body weight (%) ([2]; 10% (w/v) in drinking water, 0 Day): 100.0 ± 0.0% | Change in body weight (%) ([2]; 10% (w/v) in drinking water, 1 Day): 98.1 ± 0.2% | Change in body weight (%) ([2]; 10% (w/v) in drinking water, 2 Day): 97.6 ± 0.8 % | Change in body weight (%) ([2]; 10% (w/v) in drinking water, 3 Day): 94.6 ± 0.7 % | body weight as compared with the distilled water-drinking control group [2, 8]: decreased depending on the concentration | body weight as compared with the initial body weight [2, 8]: significantly decreased | Change in body weight (%) ([2]; 15% (w/v) in drinking water, 0 Day): 100.0 ± 0.0% | Change in body weight (%) ([2]; 15% (w/v) in drinking water, 2 Day): 94.0 ± 1.3 % | Change in body weight (%) ([2]; 20% (w/v) in drinking water, 0 Day): 100.0 ± 0.0% | Change in body weight (%) ([2]; 20% (w/v) in drinking water, 1 Day): 100.0 ± 0.0% | Change in body weight (%) ([2]; 20% (w/v) in drinking water, 2 Day): 89.1 ± 6.9 % | Change in body weight (%) ([2]; 20% (w/v) in drinking water, 3 Day): 85.4 ± 8.1 % | Increasing Amount of Blood Sugar (15 min.~0 hour) [3, 9]: 190.0 mg/dL | Level of Blood Sugar Before and After Administration of D-glucose (mg/dl), 0 Hour [3, 9]: 74.8 mg/dL | Level of Blood Sugar Before and After Administration of D-glucose (mg/dl), 15 min. [3, 9]: 264.8 mg/dL | Rate of Suppression (%) [3, 9]: 19.7% | Increasing Amount of Blood Sugar (15 min.~0 hour) [3, 10]: 191.0 mg/dL | Level of Blood Sugar Before and After Administration of D-glucose (mg/dl), 0 Hour [3, 10]: 83.3 mg/dL | Level of Blood Sugar Before and After Administration of D-glucose (mg/dl), 15 min. [3, 10]: 274.3 mg/dL | Rate of Suppression (%) [3, 10]: 19.3% | Increasing Amount of Blood Sugar (15 min.~0 hour) [3, 11]: 184.5 mg/dL | Level of Blood Sugar Before and After Administration of D-glucose (mg/dl), 0 Hour [3, 11]: 83.3 mg/dL | Level of Blood Sugar Before and After Administration of D-glucose (mg/dl), 15 min. [3, 11]: 267.8 mg/dL | Rate of Suppression (%) [3, 11]: 22.0% | Increasing Amount of Blood Sugar (15 min.~0 hour) [3, 12]: 180.7 mg/dL | Level of Blood Sugar Before and After Administration of D-glucose (mg/dl), 0 Hour [3, 12]: 78.3 mg/dL | Level of Blood Sugar Before and After Administration of D-glucose (mg/dl), 15 min. [3, 12]: 259.0 mg/dL | Rate of Suppression (%) [3, 12]: 23.7% | blood sugar caused by intaking glucose suppressed as compared with the control group ([3]; oral, all pre-treatment times): 19˜24% | Total Amount of Fat ([4]; 10% (w/v)): 1233.9 ± 244.8 mg | Weight of Genital Fat ([4]; 10% (w/v)): 473.3 ± 99.6 mg | Weight of Intra-abdominal Fat ([4]; 10% (w/v)): 113.0 ± 31.5 mg | Weight of Liver ([4]; 10% (w/v)): 1011.1 ± 33.5 mg | Weight of Subcutaneous Fat ([4]; 10% (w/v)): 647.6 ± 119.5 mg | Total Amount of Fat ([4]; 15% (w/v)): 795.8 ± 90.1 mg | Weight of Genital Fat ([4]; 15% (w/v)): 319.6 ± 46.5 mg | Weight of Liver ([4]; 15% (w/v)): 960.2 ± 44.6 mg | Weight of Subcutaneous Fat ([4]; 15% (w/v)): 411.3 ± 43.9 mg | Total Amount of Fat ([4]; 20% (w/v)): 666.9 ± 75.3 mg | Weight of Genital Fat ([4]; 20% (w/v)): 240.8 ± 45.5 mg | Weight of Intra-abdominal Fat ([4]; 20% (w/v)): 43.9 ± 9.3 mg | Weight of Liver ([4]; 20% (w/v)): 990.1 ± 35.1 mg | Weight of Subcutaneous Fat ([4]; 20% (w/v)): 382.1 ± 38.3 mg | weight of liver vs control group [4]: decreased depending on the concentrations | Total Amount of Fat [5, 13]: 1615.0 ± 212.3 mg | Weight of Genital Fat [5, 13]: 594.0 ± 95.0 mg | Weight of Intra-abdominal Fat [5, 13]: 158.8 ± 36.3 mg | Weight of Liver [5, 13]: 999.3 ± 150.2 mg | Weight of Subcutaneous Fat [5, 13]: 862.2 ± 86.7 mg | weight of liver vs control group [5, 8]: decreased depending on the concentrations | Total Amount of Fat [5, 14]: 1437.0 ± 282.0 mg | Weight of Genital Fat [5, 14]: 524.8 ± 67.1 mg | Weight of Intra-abdominal Fat [5, 14]: 147.2 ± 29.2 mg | Weight of Liver [5, 14]: 820.5 ± 66.0 mg | Weight of Subcutaneous Fat [5, 14]: 765.1 ± 238.8 mg | Total Amount of Fat [5, 15]: 1035.6 ± 324.3 mg | Weight of Genital Fat [5, 15]: 448.4 ± 108.6 mg | Weight of Intra-abdominal Fat [5, 15]: 97.8 ± 44.9 mg | Weight of Liver [5, 15]: 808.7 ± 76.8 mg | Weight of Subcutaneous Fat [5, 15]: 489.4 ± 183.5 mg | Amount of Feed Intake (g/mouse/day) ([6]; 10% (w/v) oral three times a day, 1 Day): 3.0 ± 0.2 g/mouse/day | Amount of Feed Intake (g/mouse/day) ([6]; 10% (w/v) oral three times a day, 2 Day): 2.8 ± 0.3 g/mouse/day | Amount of Feed Intake (g/mouse/day) ([6]; 10% (w/v) oral three times a day, 3 Day): 2.9 ± 0.5 g/mouse/day | Amount of Feed Intake (g/mouse/day) ([6]; 10% (w/v) oral three times a day, 4 Day): 2.7 ± 0.5 g/mouse/day | Amount of Feed Intake (g/mouse/day) ([6]; 10% (w/v) oral three times a day, 5 Day): 2.7 ± 0.5 g/mouse/day | amount of dietary intake ([6]; 10, 20, 40% (W/V) oral): temporary effect on decreasing an amount of dietary intake | Amount of Feed Intake (g/mouse/day) ([6]; 20% (w/v) oral three times a day, 1 Day): 2.4 ± 0.4 g/mouse/day | Amount of Feed Intake (g/mouse/day) ([6]; 20% (w/v) oral three times a day, 2 Day): 2.1 ± 0.4 g/mouse/day | Amount of Feed Intake (g/mouse/day) ([6]; 20% (w/v) oral three times a day, 3 Day): 2.5 ± 0.4 g/mouse/day | Amount of Feed Intake (g/mouse/day) ([6]; 20% (w/v) oral three times a day, 4 Day): 2.6 ± 0.2 g/mouse/day | Amount of Feed Intake (g/mouse/day) ([6]; 20% (w/v) oral three times a day, 5 Day): 2.1 ± 0.4 g/mouse/day | Amount of Feed Intake (g/mouse/day) ([6]; 40% (w/v) oral three times a day, 1 Day): 1.8 ± 0.5 g/mouse/day | Amount of Feed Intake (g/mouse/day) ([6]; 40% (w/v) oral three times a day, 2 Day): 2.0 ± 0.5 g/mouse/day | Amount of Feed Intake (g/mouse/day) ([6]; 40% (w/v) oral three times a day, 3 Day): 2.7 ± 0.6 g/mouse/day | Amount of Feed Intake (g/mouse/day) ([6]; 40% (w/v) oral three times a day, 4 Day): 2.5 ± 0.3 g/mouse/day | Amount of Feed Intake (g/mouse/day) ([6]; 40% (w/v) oral three times a day, 5 Day): 2.6 ± 0.3 g/mouse/day | Change in body weight (%) ([7]; 1 Day): 96.1 ± 1.1 % | Change in body weight (%) ([7]; 3 Day): 90.9 ± 2.3 %
